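Step 1: Grow cells in 96-well plates. Step 2: Expose to compound for 48 hours at 5 concentrations. Step 3: Interpolate endpoints linearly; if unreached, use highest concentration. TGI marks complete inhibition of growth.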
Assays:
Test in all cases: growth of human tumour cells (NCI), 48 h
[1] = system: M14 melanoma
[2] = system: MOLT-4 leukemia
[3] = system: DU-145 prostate
[4] = system: T-47D breast
[5] = system: UACC-257 melanoma
[6] = system: SK-MEL-5 melanoma
[7] = system: TK-10 renal
[8] = system: SF-268 CNS
[9] = system: NCI-H23 lung
[10] = system: NCI-H226 lung
[11] = system: RPMI-8226 leukemia
[12] = system: NCI/ADR-RES ovarian
[13] = system: HCC-2998 colon
[14] = system: NCI-H460 lung
[15] = system: K-562 leukemia
[16] = system: SF-295 CNS
[17] = system: UACC-62 melanoma
[18] = system: BT-549 breast
[19] = system: OVCAR-3 ovarian
[20] = system: 786-0 renal
[21] = system: HOP-92 NSCLC
[22] = system: OVCAR-4 ovarian
[23] = system: A549 NSCLC
[24] = system: SK-OV-3 ovarian
[25] = system: HL-60(TB) leukemia
[26] = system: OVCAR-8 ovarian
[27] = system: U251 CNS
[28] = system: SK-MEL-2 melanoma
[29] = system: ACHN renal
[30] = system: RXF 393 renal
[31] = system: MCF7 breast
[32] = system: CCRF-CEM leukemia
[33] = system: HT29 colon
[34] = system: MALME-3M melanoma
[35] = system: SW-620 colon
[36] = system: KM12 colon
[37] = system: SNB-75 CNS
[38] = system: SK-MEL-28 melanoma
[39] = system: EKVX NSCLC
[40] = system: SNB-19 CNS
[41] = system: HS 578T breast
[42] = system: NCI-H522 lung
[43] = system: OVCAR-5 ovarian
[44] = system: HOP-62 NSCLC
[45] = system: COLO 205 colon
[46] = system: SF-539 CNS
[47] = system: MDA-MB-435
[48] = system: PC-3 prostate
[49] = system: HCT-15 colon
[50] = system: UO-31 renal
[51] = system: MDA-MB-231 breast
[52] = system: IGROV1 ovarian
[53] = system: LOX IMVI melanoma
[54] = system: MDA-N
[55] = system: CAKI-1 renal
[56] = system: SN12C renal
[57] = system: HCT-116 colon
[58] = system: SR leukemia
[59] = system: A498 renal

Structure (SMILES): O=C(O)CNC(=O)CO/N=C1/C(c2c(O)[nH]c3ccccc23)=Nc2ccccc21
- TGI [1]: > 100 µM
- TGI [2]: > 100 µM
- TGI [3]: > 100 µM
- TGI [4]: > 100 µM
- TGI [5]: > 100 µM
- TGI [6]: > 100 µM
- TGI [7]: > 100 µM
- TGI [8]: > 100 µM
- TGI [9]: > 100 µM
- TGI [10]: > 100 µM
- TGI [11]: > 100 µM
- TGI [12]: > 100 µM
- TGI [13]: > 100 µM
- TGI [14]: > 100 µM
- TGI [15]: > 100 µM
- TGI [16]: > 100 µM
- TGI [17]: > 100 µM
- TGI [18]: > 100 µM
- TGI [19]: > 100 µM
- TGI [20]: > 100 µM
- TGI [21]: > 100 µM
- TGI [22]: > 100 µM
- TGI [23]: > 100 µM
- TGI [24]: > 100 µM
- TGI [25]: > 100 µM
- TGI [26]: > 100 µM
- TGI [27]: > 100 µM
- TGI [28]: > 100 µM
- TGI [29]: > 100 µM
- TGI [30]: > 100 µM
- TGI [31]: > 100 µM
- TGI [32]: > 100 µM
- TGI [33]: > 100 µM
- TGI [34]: > 100 µM
- TGI [35]: > 100 µM
- TGI [36]: > 100 µM
- TGI [37]: > 100 µM
- TGI [38]: > 100 µM
- TGI [39]: > 100 µM
- TGI [40]: > 100 µM
- TGI [41]: > 100 µM
- TGI [42]: > 100 µM
- TGI [43]: > 100 µM
- TGI [44]: 87.3 µM
- TGI [45]: > 100 µM
- TGI [46]: > 100 µM
- TGI [47]: > 100 µM
- TGI [48]: > 100 µM
- TGI [49]: > 100 µM
- TGI [50]: > 100 µM
- TGI [51]: > 100 µM
- TGI [52]: > 100 µM
- TGI [53]: > 100 µM
- TGI [54]: > 100 µM
- TGI [55]: > 100 µM
- TGI [56]: > 100 µM
- TGI [57]: > 100 µM
- TGI [58]: > 100 µM

Structure (SMILES): CC1=NN(c2ccccc2)C(=O)C1N=Nc1ccc([As](=O)(O)O)c(O)c1 (stereo unspecified)
- TGI [1]: > 100 µM
- TGI [2]: > 100 µM
- TGI [3]: > 100 µM
- TGI [4]: > 100 µM
- TGI [5]: > 100 µM
- TGI [6]: > 100 µM
- TGI [7]: > 100 µM
- TGI [8]: > 100 µM
- TGI [9]: > 100 µM
- TGI [10]: > 100 µM
- TGI [11]: > 100 µM
- TGI [12]: > 100 µM
- TGI [14]: > 100 µM
- TGI [15]: > 100 µM
- TGI [16]: > 100 µM
- TGI [17]: > 100 µM
- TGI [18]: > 100 µM
- TGI [19]: > 100 µM
- TGI [20]: > 100 µM
- TGI [21]: > 100 µM
- TGI [22]: > 100 µM
- TGI [23]: > 100 µM
- TGI [24]: > 100 µM
- TGI [25]: > 100 µM
- TGI [26]: > 100 µM
- TGI [27]: > 100 µM
- TGI [28]: > 100 µM
- TGI [29]: > 100 µM
- TGI [30]: > 100 µM
- TGI [31]: > 100 µM
- TGI [32]: 92.6 µM
- TGI [33]: > 100 µM
- TGI [34]: > 100 µM
- TGI [35]: > 100 µM
- TGI [36]: > 100 µM
- TGI [37]: > 100 µM
- TGI [38]: > 100 µM
- TGI [39]: > 100 µM
- TGI [40]: > 100 µM
- TGI [41]: > 100 µM
- TGI [42]: > 100 µM
- TGI [43]: > 100 µM
- TGI [44]: > 100 µM
- TGI [45]: > 100 µM
- TGI [46]: > 100 µM
- TGI [47]: > 100 µM
- TGI [48]: > 100 µM
- TGI [49]: > 100 µM
- TGI [50]: > 100 µM
- TGI [51]: > 100 µM
- TGI [52]: > 100 µM
- TGI [53]: > 100 µM
- TGI [54]: > 100 µM
- TGI [59]: > 100 µM
- TGI [55]: > 100 µM
- TGI [56]: > 100 µM
- TGI [57]: > 100 µM
- TGI [58]: > 100 µM
